Results: patent US10793565B2, “Heterocyclic compounds as immunomodulators” (Incyte Corporation, priority 2016, dated 2020)

Each compound was assayed against PD-1/PD-L1 protein/protein interaction (Homo sapiens (Human), UniProt Q9NZQ7) (assay: PD-1/PD-L1 Homogeneous Time-Resolved Fluorescence (HTRF) binding assay). Settings: recombinant human PD-L1 (19-238) His-tag, human PD-1 (25-167) Fc tag; 25° C., PBS pH 7.4.
Protocol: Example A. PD-1/PD-L1 Homogeneous Time-Resolved Fluorescence (HTRF) Binding Assay
The assays were conducted in a standard black 384-well polystyrene plate with a final volume of 20 μL. Inhibitors were first serially diluted in DMSO and then added to the plate wells before the addition of other reaction components. The final concentration of DMSO in the assay was 1%. The assays were carried out at 25° C. in the PBS buffer (pH 7.4) with 0.05% Tween-20 and 0.1% BSA. Recombinant human PD-L1 protein (19-238) with a His-tag at the C-terminus was purchased from AcroBiosystems (PD1-H5229). Recombinant human PD-1 protein (25-167) with Fc tag at the C-terminus was also purchased from AcroBiosystems (PD1-H5257). PD-L1 and PD-1 proteins were diluted in the assay buffer and 10 μL was added to the plate well. Plates were centrifuged and proteins were preincubated with inhibitors for 40 minutes. The incubation was followed by the addition of 10 μL of HTRF detection buffer supplemented with Europium cryptate-labeled anti-human IgG (PerkinElmer-AD0212) specific for Fc and anti-His antibody conjugated to SureLight®-Allophycocyanin (APC, PerkinElmer-AD0059H). After centrifugation, the plate was incubated at 25° C. for 60 min. before reading on a PHERAstar FS plate reader (665 nm/620 nm ratio). Final concentrations in the assay were […], 10 nM PD-L1, 1 nM europium anti-human IgG and 20 nM anti-His-Allophycocyanin. IC50 determination was performed by fitting the curve of percent control activity versus the log of the inhibitor concentration using the GraphPad Prism 5.0 software.

PD-1/PD-L1 protein/protein interaction, sequence (Q9NZQ7 19-238): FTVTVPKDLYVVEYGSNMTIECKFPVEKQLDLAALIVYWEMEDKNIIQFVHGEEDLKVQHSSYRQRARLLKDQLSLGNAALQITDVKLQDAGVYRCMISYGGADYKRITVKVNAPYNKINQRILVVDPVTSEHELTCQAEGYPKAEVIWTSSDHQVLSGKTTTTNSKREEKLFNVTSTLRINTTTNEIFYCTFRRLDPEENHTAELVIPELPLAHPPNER

IC50, ≤ 10 nM:
Cc1c(NC(=O)c2ccc(CNCCO)cn2)cccc1-c1cccc(-c2nc3c(Cl)cc(CNCCO)cn3n2)c1C [Example 1, N-(3′-(8-chloro-6-((2-hydroxyethylamino)methyl)-[1,2,4]triazolo[1,5-a]pyridin-2-yl)-2,2′-dimethylbiphenyl-3-yl)-5-((2-hydroxyethylamino)methyl)picolinamide]
Cc1c(-c2nc3c(Cl)cc(CNCCO)cn3n2)cccc1-c1cccc(NC(=O)c2ccc(CNCCO)cn2)c1Cl [Example 2, N-(2-chloro-3′-(8-chloro-6-((2-hydroxyethylamino)methyl)-[1,2,4]triazolo[1,5-a]pyridin-2-yl)-2′-methylbiphenyl-3-yl)-5-((2-hydroxyethylamino)methyl)picolinamide]
Cc1c(-c2nc3c(C#N)cc(CNCCO)cn3n2)cccc1-c1cccc(NC(=O)c2ccc(CNCCO)cn2)c1Cl [Example 3, N-(2-chloro-3′-(8-cyano-6-((2-hydroxyethylamino)methyl)-[1,2,4]triazolo[1,5-a]pyridin-2-yl)-2′-methylbiphenyl-3-yl)-5-((2-hydroxyethylamino)methyl)picolinamide]
Cc1c(-c2nc3c(Cl)cc(CNCCO)cn3n2)cccc1-c1cccc(-c2nc3c(s2)CNCC3)c1C [Example 4, 2-((8-chloro-2-(2,2′-dimethyl-3′-(4,5,6,7-tetrahydrothiazolo[5,4-c]pyridin-2-yl)biphenyl-3-yl)-[1,2,4]triazolo[1,5-a]pyridin-6-yl)methylamino)ethanol]
